Source: patent US7892557B2, “Peptide mimotopes of mycobacterial mannosylated lipoglycans and uses thereof” (priority 2004, dated 2011)
Ends that are not written are not given here.

Columns and labels:
[1] = system: IgG antibodies in sera of Mtb-infected mice; format: binding, BALB/c mice
RAW 264.7 cell line [2] = assay: FACS analysis of FITC-labeled mimotope binding to RAW 264.7 cell line; format: cell-based, murine
Protocol: (§1) The cell line RAW 264.7 obtained from the American Type Culture Collection was grown in Dulbecco's modified Eagle's medium (DMEM) supplemented with 10% FCS, 1% penicillin, 1% L-glutamine, 1% nonessential amino acids, and 1% pyruvate (Biological Industries, Beit Haemek, Israel) to an 80% confluent culture at 37° C. in an atmosphere enriched with 5% CO2.
RAW 264.7 cells were grown in a 250-ml flask, washed 3 times in cold PBS, and harvested. Cells were then incubated for 15 min at 37° C., with the FITC-labeled peptide diluted 1:50, then washed 3 times in cold PBS. The fluorescence levels of 10,000 cell counts were determined by FACS (Becton Dickinson, Franklin Lakes, N.J.) and analyzed by CELLQuest™ software. Assay of competitive binding between mannose and the FITC-labeled B11 peptide was performed according to Nguyen and Hildreth, [Nguyen, D. G., and Hildreth, J. E. Eur J Immunol 33:483-493 (2003)].

RAW 264.7 cell line [3] = assay: Confocal microscopy of FITC-labeled B11 peptide binding to RAW 264.7 cell line; format: cell-based, murine; conditions: FIG. 5A
Protocol: as §1
B11 peptide (50 μg) was conjugated to FITC (Biotium, Hayward, Calif.) as described by Sethi et al., [Sethi, K. K., et al. Cell Motil Cytoskeleton 52:231-241 (2002)]. For confocal microscopy, RAW 264.7 cells were grown in 8-well glass slides, Chamber Slide™ (Nunc), as described above. Cells were washed three times in cold PBS and incubated with the FITC-labeled mimotope for 5 min at 4° C. in serial dilutions of 1:2-1:100 in cold PBS. Slides were imaged immediately with a Zeiss 410 confocal laser scanning microscope.

CS40 mAb = assay: Direct peptide ELISA with CS40 mAb; format: binding; conditions: synthetic peptide coated plates
CS40 anti-ManLAM mAb = assay: ELISA competition vs. ManLAM for CS40 mAb; format: binding; conditions: 50 μg/ml of peptide; FIG. 1B
Protocol: Binding efficacy of the amino acid molecule to ManLAM binding antibodies may be evaluated by determining the magnitude of OD decrease when serial dilutions of phage clones/amino acid molecule are incubated with CS40 mAb. The phage clones/amino acid molecule with a higher affinity to mAb will show maximum inhibition of the binding of the mAb to ManLAM with the lowest number of phage particles or lowest amount of amino acid molecule, respectively.
ELISA competition assay was performed according to Kaur et al., [Kaur, D., et al. Microbiology 148:3049-3057 (2002)]. Briefly, plates were coated with 0.5 μg/well ManLAM. Plates were blocked as described above. The CS40 mAb (diluted 1:2000) was mixed with various concentrations of either phage particles in TBS/1% BSA ([…]) or peptides in PBS/1% BSA (0-200 μg/well). […] After washing (PBS), the ELISA procedure was performed as described above. Samples were all tested in triplicate
Efficiency of binding was evaluated by the magnitude of OD decrease when serial dilutions of phage clones were incubated with the CS40 mAb.

[4] = system: serum antibodies of TB patients; assay: Direct ELISA of human sera on B11 peptide or ManLAM coated plates; conditions: FIG. 4
Protocol: Direct ELISA assays were performed by coating 96-well ELISA plates (O/N at 4° C.) with 5-20 μg peptide per well in PBS ManLAM 5 μg/well (50 μl/well). The plates were washed twice in phosphate buffered saline (PBS), blocked with PBS/1% BSA and then washed twice (PBS). Sera diluted in PBS/0.5% BSA (1:50 or 1:200) or CS40 mAb (1:2000) (50 μl per well) was added and incubated for 1 h at 37° C. After washing, alkaline phosphatase-labeled goat anti-mouse immunoglobulin (Sigma, St. Louis, Mo.) was added. Following 90-min incubation at 37° C., p-nitrophenyl phosphate (KPL, Gaithersburg, Md.) was added to the plates, and optical density was measured at 405 nm using ELISA reader (ELX-800UV, Bio-Tec instruments, Winooski, Vt.). In all ELISA procedures, samples were tested in triplicate.
The presence of serum antibodies in sera of TB patients that bind the B11 peptide was tested. […] Using ELISA, sera from Bacillus Calmette Guerin (BCG)-vaccinated individuals (n=10) was tested, as it is sometimes difficult to distinguish BCG-vaccinated individuals from TB patients [Ciesielski, S. D., J Fam Pract 40:76-80 (1995)].

“CISLTEWSMWYRH (random phage display library) [SEQ ID NO: 10, B11 peptide with additional cysteine residue at the amino terminus]” was tested, and the “binding properties to ManLAM-binding antibodies compared with original peptide” value ([1]; ELISA with extra cysteine at the amino terminus, data not shown) was “maintained binding properties”.
In the case of “FITC-conjugated B11 peptide: B11 peptide conjugated to FITC (ISLTEWSMWYRH; also: FITC-conjugated, position not given here)”, the “effect of D-mannose on binding to macrophages (FACS)” value (RAW 264.7 cell line [2]; 0.125 M D-mannose added, FIG. 5C) is reported as “inhibited”, the “binding to macrophage cell line RAW 264.7 by FACS analysis” value (RAW 264.7 cell line [2]; FITC-labeled peptide diluted 1:50, FIG. 5B) is reported as “bound” and the “binding to macrophage cell line RAW 264.7 by confocal microscopy” value (RAW 264.7 cell line [3]) is reported as “bound”.
“ISLTEWSMWYRH (random phage display library) [B11 peptide]” was tested, and the “binding to CS40 mAb by direct ELISA” value (CS40 mAb) was “bound”, the “IgG Abs in sera of Mtb-infected mice binding the antigen, vs. naive mice” value [1] was “significantly higher” and the “decrease in OD in competitive ELISA vs. ManLAM” value (CS40 anti-ManLAM mAb) was 100%. For the same substance, the “anti-peptide antibody titers in BCG-vaccinated individuals vs. TB patients” value ([4]; BCG-vaccinated (n=10), p<0.001) was “significantly lower” and the “antigen-binding antibody titers in sera of TB patients vs. healthy individuals” value ([4]; TB patients (n=16) vs. healthy individuals (n=36)) was “Significantly higher titers”.
